The results in this text go back to US12071434B2, “Heterocyclic compound” (Takeda Pharmaceutical Company Limited, priority 2018, dated 2024).

SMILES strings stand for the structures.

The subject of one experiment is mice (C57BL/6J mice). The experiment in a line: Evaluation of wake-promoting effects by EEG and EMG in mice. As to conditions: 30 mg/kg, p.o., at zeitgeber time 5; time spent in wakefulness for 2 h after administration; male mice. The format is in vivo. The protocol:
The wake-promoting effects were evaluated by measuring the electroencephalogram (EEG) and electromyogram (EMG) in […] mice (C57BL/6Jmice, CLEA Japan Inc., Tokyo, Japan). Under pentobarbital sodium anesthesia (50 mg/kg, intraperitoneal, Somnopentyl®, Kyoritsu Seiyaku, Tokyo, Japan), […] male […] mice were surgically implanted with EEG electrode and EMG electrode. Bilateral EEG leads (Biotex, Kyoto, Japan) were stereotaxically positioned at the parietal area and secured to the cranium with stainless-steel screws in contact with the dura. Bilateral EMG leads (Biotex) were implanted into the back cervical muscles. After at least a 1-week recovery period in home cages, the […] mice were habituated to the recording chamber located in an electrically shielded soundproof room. After habituated, the cortical EEG and EMG signals were recorded using VitalRecorder® (Kissei Comtec Co., Ltd., Nagano, Japan). The signals were automatically scored in 4 sec epochs by a sleep scoring system (SleepSign®, Kissei Comtec Co., Ltd.). Test compound (30 mg/kg, Table 3X-1) dissolved in a mixed solution containing 10% DMSO, 10% Cremophor EL, 20% PEG400 and 60% H2O, or vehicle (i.e., a mixed solution containing 10% DMSO, 10% Cremophor EL, 20% PEG400 and 60% H2O) was administered orally (p.o.) to the […] mice at zeitgeber time 5 in a volume of 10 mL/kg. The EEG and EMG recordings were performed for 2 h after the compound administration. The time spent in wakefulness for 2 h after administration (% of vehicle treatment) was calculated by using SleepSign.
Regarding `CC(C)n1cnc2c(c1=O)[C@@H](Cc1cccc(-c3ccccc3)c1F)[C@@H](NS(=O)(=O)C1(F)CC1)CC2` [Example 180, 1-fluoro-N-[(5R,6S)-5-[(2-fluoro[1,1′-biphenyl]-3-yl)methyl]-4-oxo-3-(propan-2-yl)-3,4,5,6,7,8-hexahydroquinazolin-6-yl]cyclopropane-1-sulfonamide], the “Wakefulness time (% of vehicle treatment) (Mean, n = 3)” value was 197.28 % of vehicle treatment.

As to `CC(C)n1cnc2c(c1=O)[C@@H](Cc1cccc(-c3ccccc3)c1F)[C@@H](NS(=O)(=O)C1CC1)CC2` [Example 176, N-[(5R,6S)-5-[(2-fluoro[1,1′-biphenyl]-3-yl)methyl]-4-oxo-3-(propan-2-yl)-3,4,5,6,7,8-hexahydroquinazolin-6-yl]cyclopropanesulfonamide], the “Wakefulness time (% of vehicle treatment) (Mean, n = 3)” value was 204.27 % of vehicle treatment.

The target in a further experiment is T1, human orexin type 2 receptor (Homo sapiens, UniProt O43614).
T1 construct: expressed in transfected cells
T1 sequence (O43614 1-444): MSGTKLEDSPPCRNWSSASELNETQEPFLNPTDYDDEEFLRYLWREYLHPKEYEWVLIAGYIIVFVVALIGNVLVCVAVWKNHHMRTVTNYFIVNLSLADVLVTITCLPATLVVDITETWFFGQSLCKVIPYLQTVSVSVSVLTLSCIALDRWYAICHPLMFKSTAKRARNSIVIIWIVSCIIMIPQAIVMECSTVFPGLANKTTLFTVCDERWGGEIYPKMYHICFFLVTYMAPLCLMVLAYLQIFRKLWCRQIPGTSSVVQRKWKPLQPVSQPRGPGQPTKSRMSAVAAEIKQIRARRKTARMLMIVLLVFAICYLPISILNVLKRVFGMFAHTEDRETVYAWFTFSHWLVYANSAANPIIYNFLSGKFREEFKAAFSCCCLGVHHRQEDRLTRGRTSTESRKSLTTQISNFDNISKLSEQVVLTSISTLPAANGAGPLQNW
The experiment is described as follows: Measurement of orexin type 2 receptor agonist activity (calcium fluorescence, Fluo-4 AM, FDSS) in CHO cells forcibly expressing human OX2 receptor. It counts as cell-based. As to conditions: test compound 3 μM, DMSO = 0%, orexin A (human) 10 nM = 100%. The gist of the method:
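CHO-dhfr cells stably expressing human OX2 receptor, loaded with Fluo-4 AM plus probenecid for 30 min at 37 °C, then 30 min at room temperature. Calcium fluorescence read for about 2 min 40 s after compound addition. Activity (%) scaled between DMSO (0%) and 10 nM human orexin A (100%).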
In the case of `CC(C)n1cnc2c(c1=O)[C@@H](Cc1cccc(-c3ccccc3)c1F)[C@@H](NS(=O)(=O)C1(F)CC1)CC2` [Example 180, 1-fluoro-N-[(5R,6S)-5-[(2-fluoro[1,1′-biphenyl]-3-yl)methyl]-4-oxo-3-(propan-2-yl)-3,4,5,6,7,8-hexahydroquinazolin-6-yl]cyclopropane-1-sulfonamide], the “0X2R agonist activity (3 μM, %)” value is 94%.

`CC(C)n1cnc2c(c1=O)[C@@H](Cc1cccc(-c3ccccc3)c1F)[C@@H](NS(=O)(=O)C1CC1)CC2` [Example 176, N-[(5R,6S)-5-[(2-fluoro[1,1′-biphenyl]-3-yl)methyl]-4-oxo-3-(propan-2-yl)-3,4,5,6,7,8-hexahydroquinazolin-6-yl]cyclopropanesulfonamide]: the “0X2R agonist activity (3 μM, %)” value was found to be 93%.

As for `Cc1cc(F)c2n(c1=O)[C@@H](Cc1cccc(-c3ccccc3)c1)[C@@H](NS(C)(=O)=O)CC2` (racemic) [Example 21, rac-N-{(3S,4S)-4-[([1,1′-biphenyl]-3-yl)methyl]-9-fluoro-7-methyl-6-oxo-1,3,4,6-tetrahydro-2H-quinolizin-3-yl}methanesulfonamide], the “0X2R agonist activity (3 μM, %)” value stood at 101%.

On to `CCc1ccc2n(c1=O)C(Cc1cccc(-c3cccc(F)c3)c1F)C(NC(=O)C(=O)N(C)C)CC2` (racemic) [Example 39, rac-N~2~-{(3S,4S)-4-[2,3′-difluoro[1,1′-biphenyl]-3-yl)methyl]-7-ethyl-6-oxo-1,3,4,6-tetrahydro-2H-quinolizin-3-yl}-N~1~,N~1~-dimethylethanediamide], for which the “0X2R agonist activity (3 μM, %)” value is recorded as 89%.

Consider `CC(C)n1cnc2c(c1=O)[C@@H](Cc1csc(-c3ccccc3)n1)[C@@H](NS(=O)(=O)C1CC1)CC2` (relative stereo) [Example 169, rel-N-[(5R,6S)-4-oxo-5-[(2-phenyl-1,3-thiazol-4-yl)methyl]-3-(propan-2-yl)-3,4,5,6,7,8-hexahydroquinazolin-6-yl]cyclopropanesulfonamide], for which the “0X2R agonist activity (3 μM, %)” value was 91%.

As for `CC(C)=Cc1cccc(C[C@@H]2c3c(ncn(C(C)C)c3=O)CC[C@@H]2NS(=O)(=O)C2(F)CC2)c1` (racemic) [Example 197, rac-1-fluoro-N-[(5R,6S)-5-{[3-(2-methylprop-1-en-1-yl)phenyl]methyl}-4-oxo-3-(propan-2-yl)-3,4,5,6,7,8-hexahydroquinazolin-6-yl]cyclopropane-1-sulfonamide], the “0X2R agonist activity (3 μM, %)” value came to 92%.

Turning to `CCc1c(C)n(C)c2c(c1=O)[C@@H](Cc1cccc(-c3ccccc3)c1)[C@@H](NS(C)(=O)=O)CC2` (racemic) [Example 211, rac-N-{(5R,6S)-5-[([1,1′-biphenyl]-3-yl)methyl]-3-ethyl-1,2-dimethyl-4-oxo-1,4,5,6,7,8-hexahydroquinolin-6-yl}methanesulfonamide], the “0X2R agonist activity (3 μM, %)” value is 82%.

As to `CS(=O)(=O)N[C@H]1CCc2ncn(CC3CC3)c(=O)c2[C@H]1Cc1cccc(-c2ccccc2)c1` (racemic) [Example 103, rac-N-[(5R,6S)-5-[([1,1′-biphenyl]-3-yl)methyl]-3-(cyclopropylmethyl)-4-oxo-3,4,5,6,7,8-hexahydroquinazolin-6-yl]methanesulfonamide], the “0X2R agonist activity (3 μM, %)” value was 79%.

Turning to `CCn1ccc2c(c1=O)[C@@H](Cc1cccc(-c3cccc(C)c3)c1F)[C@@H](NS(C)(=O)=O)CC2` (racemic) [Example 93, rac-N-{(7S,8R)-2-ethyl-8-[(2-fluoro-3′-methyl[1,1′-biphenyl]-3-yl)methyl]-1-oxo-1,2,5,6,7,8-hexahydroisoquinolin-7-yl}methanesulfonamide], the “0X2R agonist activity (3 μM, %)” value was determined as 101%.

Take `CC(C)n1cnc2c(c1=O)[C@@H](Cc1cccc(-c3cc(F)cc(F)c3)c1)[C@@H](NS(=O)(=O)C1CC1)CC2` [Example 175, N-[(5R,6S)-5-[(3′,5′-difluoro[1,1′-biphenyl]-3-yl)methyl]-4-oxo-3-(propan-2-yl)-3,4,5,6,7,8-hexahydroquinazolin-6-yl]cyclopropanesulfonamide]: the “0X2R agonist activity (3 μM, %)” value is 85%.

As to `CC1OC[C@@H]2CC[C@H](NS(C)(=O)=O)[C@H](Cc3cccc(-c4cccc(F)c4)c3)N2C1=O` (relative stereo) [Example 140, rel-N-{(6S,7S,9aS)-6-[(3′-fluoro[1,1′-biphenyl]-3-yl)methyl]-3-methyl-4-oxooctahydropyrido[2,1-c][1,4]oxazin-7-yl}methanesulfonamide], the “0X2R agonist activity (3 μM, %)” value was 94%.

Take `Cn1cc2n(c1=O)C(Cc1cccc(-c3ccccc3)c1)C(NC(=O)[C@@H]1CCCO1)CC2` (mixture of isomers) [Example 205, (2S)-N-{(5SR,6SR)-5-[([1,1′-biphenyl]-3-yl)methyl]-2-methyl-3-oxo-2,3,5,6,7,8-hexahydroimidazo[1,5-a]pyridin-6-yl}oxolane-2-carboxamide]: the “0X2R agonist activity (3 μM, %)” value is 81%.

For `CC(C)n1cnc2c(c1=O)[C@@H](Cc1csc(-c3ccccc3F)n1)[C@@H](NS(C)(=O)=O)CC2` (relative stereo) [Example 155, rel-N-[(5R,6S)-5-{[2-(2-fluorophenyl)-1,3-thiazol-4-yl]methyl}-4-oxo-3-(propan-2-yl)-3,4,5,6,7,8-hexahydroquinazolin-6-yl]methanesulfonamide], the “0X2R agonist activity (3 μM, %)” value is 104%.

Regarding `Cc1cc2n(c(=O)c1C)[C@@H](Cc1cccc(-c3ccccc3)c1)[C@@H](NS(C)(=O)=O)CC2` (racemic) [Example 19, rac-N-{(3S,4S)-4-[([1,1′-biphenyl]-3-yl)methyl]-7,8-dimethyl-6-oxo-1,3,4,6-tetrahydro-2H-quinolizin-3-yl}methanesulfonamide], the “0X2R agonist activity (3 μM, %)” value turned out to be 122%.

As to `CC(C)n1ccc2c(c1=O)[C@@H](Cc1cccc(-c3ccccc3)c1)[C@@H](NS(C)(=O)=O)CC2` (racemic) [Example 52, rac-N-[(7S,8R)-8-[([1,1′-biphenyl]-3-yl)methyl]-1-oxo-2-(propan-2-yl)-1,2,5,6,7,8-hexahydroisoquinolin-7-yl]methane sulfonamide], the “0X2R agonist activity (3 μM, %)” value stood at 90%.

For `CC(C)n1cnc2c(c1=O)[C@@H](Cc1cccc(-c3ccccc3F)c1F)[C@@H](NS(=O)(=O)C1(F)CC1)CC2` [Example 183, N-[(5R,6S)-5-[(2,2′-difluoro[1,1′-biphenyl]-3-yl)methyl]-4-oxo-3-(propan-2-yl)-3,4,5,6,7,8-hexahydroquinazolin-6-yl]-1-fluorocyclopropane-1-sulfonamide], the “0X2R agonist activity (3 μM, %)” value was 95%.

On to `Cc1nn(C)c(=O)c2c1CC[C@H](NS(C)(=O)=O)[C@@H]2Cc1cccc(-c2ccccc2)c1` (racemic) [Example 96, rac-N-{(5R,6S)-5-[([1,1′-biphenyl]-3-yl)methyl]-1,3-dimethyl-4-oxo-3,4,5,6,7,8-hexahydrophthalazin-6-yl}methanesulfonamide], for which the “0X2R agonist activity (3 μM, %)” value is reported as 71%.

Take `CC(C)n1cnc2c(c1=O)[C@@H](Cc1cccc(-c3ccccc3)c1)[C@@H](NS(C)(=O)=O)CC2` (relative stereo) [Example 99, rel-N-[(5R,6S)-5-[([1,1′-biphenyl]-3-yl)methyl]-4-oxo-3-(propan-2-yl)-3,4,5,6,7,8-hexahydroquinazolin-6-yl]methanesulfonamide]: the “0X2R agonist activity (3 μM, %)” value was determined as 95%.

On to `Cc1ccc(=O)n2c1CC[C@H](NS(C)(=O)=O)[C@@H]2Cc1cccc(-c2ccccc2)c1` (racemic) [Example 8, rac-N-{(3S,4S)-4-[([1,1′-biphenyl]-3-yl)methyl]-9-methyl-6-oxo-1,3,4,6-tetrahydro-2H-quinolizin-3-yl}methanesulfonamide], for which the “0X2R agonist activity (3 μM, %)” value was 97%.

`CCn1ccc2c(c1=O)[C@@H](Cc1cccc(-c3ccccc3)c1F)[C@@H](NS(C)(=O)=O)CC2` (racemic) [Example 87, rac-N-{(7S,8R)-2-ethyl-8-[(2-fluoro[1,1′-biphenyl]-3-yl)methyl]-1-oxo-1,2,5,6,7,8-hexahydroisoquinolin-7-yl}methanesulfonamide]: the “0X2R agonist activity (3 μM, %)” value was found to be 97%.
